In ChEMBL document CHEMBL1137856, “The pharmacophore hypotheses of I(Kr) potassium channel blockers: novel class III antiarrhythmic agents” (Bioorg Med Chem Lett, 2004):

molecular target: Voltage-gated inwardly rectifying potassium channel KCNH2 (Homo sapiens, UniProt Q12809); assay: Inhibitory concentration against IKr potassium channel
Sequence (Q12809 whole entry): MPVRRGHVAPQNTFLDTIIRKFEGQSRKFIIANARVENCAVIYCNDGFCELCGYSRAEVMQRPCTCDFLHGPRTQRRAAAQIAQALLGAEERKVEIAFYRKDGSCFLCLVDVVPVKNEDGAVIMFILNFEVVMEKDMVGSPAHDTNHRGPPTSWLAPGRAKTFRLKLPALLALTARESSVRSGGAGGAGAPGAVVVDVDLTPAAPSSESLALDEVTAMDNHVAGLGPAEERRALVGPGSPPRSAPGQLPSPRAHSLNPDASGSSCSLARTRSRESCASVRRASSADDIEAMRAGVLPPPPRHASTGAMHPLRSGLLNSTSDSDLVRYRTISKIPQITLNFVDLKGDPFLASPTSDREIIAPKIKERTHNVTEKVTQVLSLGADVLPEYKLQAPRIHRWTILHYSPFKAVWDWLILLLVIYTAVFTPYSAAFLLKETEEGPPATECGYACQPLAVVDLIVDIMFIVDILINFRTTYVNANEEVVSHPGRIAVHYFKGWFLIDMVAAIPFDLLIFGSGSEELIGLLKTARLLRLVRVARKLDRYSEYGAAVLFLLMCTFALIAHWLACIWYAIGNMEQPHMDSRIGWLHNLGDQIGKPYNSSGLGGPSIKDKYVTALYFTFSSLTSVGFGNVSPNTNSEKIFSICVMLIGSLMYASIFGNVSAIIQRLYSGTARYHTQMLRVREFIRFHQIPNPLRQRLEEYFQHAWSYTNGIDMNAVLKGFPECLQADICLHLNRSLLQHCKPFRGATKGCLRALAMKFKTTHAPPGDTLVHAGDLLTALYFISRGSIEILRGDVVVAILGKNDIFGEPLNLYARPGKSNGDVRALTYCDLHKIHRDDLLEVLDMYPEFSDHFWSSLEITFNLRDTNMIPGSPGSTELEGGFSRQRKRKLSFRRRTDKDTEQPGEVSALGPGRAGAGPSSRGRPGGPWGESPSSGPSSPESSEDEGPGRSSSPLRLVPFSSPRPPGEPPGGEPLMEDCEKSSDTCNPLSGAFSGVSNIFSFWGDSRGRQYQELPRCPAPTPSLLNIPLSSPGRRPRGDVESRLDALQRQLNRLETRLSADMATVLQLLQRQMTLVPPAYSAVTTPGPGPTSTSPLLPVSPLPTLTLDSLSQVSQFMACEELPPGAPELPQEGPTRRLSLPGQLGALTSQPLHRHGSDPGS

Row | Compound | IC50 [µM]
1 | CCCCCCCN(CC)CCCCc1ccc([N+](=O)[O-])cc1 | 0.01
2 | COc1ccc(CCNCCCNC(=O)c2ccc([N+](=O)[O-])cc2)cc1OC | 0.42
3 | COc1cc2c(cc1OC)C(Cc1ccc(O)c(Oc3ccc(C[C@@H]4c5cc(OC)c(OC)cc5CCN4C)cc3)c1)N(C)CC2 (single isomer, unassigned) [DAURICINE] | 16
4 | CCCNCC(O)COc1ccc(O)cc1C(=O)CCc1ccccc1 (stereo not drawn) [5-HYDROXY PROPAFENONE] | 40
5 | CN1CCN(CCCCN2C(=O)CN(/N=C/c3ccc(-c4ccc(Cl)cc4)o3)C2=O)CC1 [AZIMILIDE] | 0.4
6 | Nc1ccncc1 [DALFAMPRIDINE] | 4400
7 | CCCCc1oc2ccc(NS(C)(=O)=O)cc2c1C(=O)c1ccc(OCCCN(CCCC)CCCC)cc1 [DRONEDARONE] | 3
8 | CCCCN(CCCC)CC(O)c1cc(Cl)cc2c1-c1ccc(Cl)cc1C2=Cc1ccc(Cl)cc1 (stereo not drawn) [LUMEFANTRINE] | 8.1
9 | NCC(O)COc1ccccc1C(=O)CCc1ccccc1 (stereo not drawn) [N-DEPROPYL-PROPAPHENONE] | 44
10 | CCC1(c2ccccc2)C(=O)NC(=O)NC1=O [PHENOBARBITAL] | 3000
11 | COc1ccc(CN(CCN(C)C)c2ccccn2)cc1 [PYRILAMINE] | 1.1
12 | COc1ccc(C2CCN(CC[C@H]3CCOc4ccccc43)CC2)cc1OC [TERIKALANT] | 0.03
13 | COc1ccc(C(=O)N2CCN(c3ccc4c(c3)CCC(=O)N4)CC2)cc1OC [VESNARINONE] | 18
